Test results taken from patent US9371337B2, “β-lactamase inhibitors” (The Regents of the University of California, priority 2011, dated 2016).

Legend:
[1] = tested on: E. cloacae 135, AmpC-overproducing; assay: MIC of third-generation cephalosporins alone and with compounds (Table 6); type: cell-based, Enterobacter cloacae; conditions: antibiotic alone
Method: (§1) The anti-resistance activity of inhibitors was investigated by the determination of the minimum inhibitory concentrations (MICs) of the β-lactam/inhibitor combination necessary to inhibit the growth of clinically-isolated bacteria resistant to third-generation cephalosporins via expression of class A or class C β-lactamases (Table 6).
(§2) Susceptibility testing was performed and interpreted following the guidelines of CLSI. (Clinical and Laboratory Standards Institute, Performance standards for antimicrobial susceptibility testing, 20th Informational Supplement, M100-S20 2010) The compounds were dissolved in 50% DMSO, and dilutions were performed using Muller-Hinton medium. An adequate final concentration was obtained to determine the minimum inhibitory concentrations (MICs). The concentration of DMSO was maintained below 5%. The inhibitors were tested for synergy with the third-generation β-lactams ceftazidime and cefotaxime against several clinical bacteria. The ratio of β-lactams to inhibitors was 1:4. Each value reported reflects the average of three independent experiments. […] The Friedman's test and the Wilcoxon signed rank test were used to compare MIC values. Statistical significance was established at p<0.05.
(§3) Table 6. MICs (μg/ml) of third-generation cephalosporins alone and in association with the compounds (ratio 1/4) for clinical bacteria. CTX, cefotaxime and CAZ, ceftazidime. ^1, AmpC-overproducing bacteria; ^2, CTX-M-14-producing E. coli; ^3, KPC-2-producing K. pneumoniae; ^4, OXA-48-producing K. pneumoniae; ^5, NDM-1-producing C. freundii.

[2] = tested on: E. cloacae, AmpC-overproducing; assay: as above; type: cell-based, Enterobacter cloacae; conditions: antibiotic alone
Method: as §1, §2, §3

[3] = tested on: P. aeruginosa, AmpC-overproducing; assay: as above; type: cell-based, Pseudomonas aeruginosa; conditions: antibiotic alone
Method: as §1, §2
Table 6. MICs (μg/ml) of third-generation cephalosporins alone and in association with the compounds (ratio 1/4) for clinical bacteria. […]

[4] = tested on: P. aeruginosa overproducing chromosomally-mediated class C β-lactamase; assay: MIC of third-generation cephalosporins alone and with compounds 4 or 9 (Table 3); type: cell-based, Pseudomonas aeruginosa; conditions: antibiotic alone
Description: (§4) Antimicrobial activity was investigated quantitatively to determine the minimum inhibitory concentrations (MICs) of the β-lactam/inhibitor combination necessary to inhibit the bacterial growth (Table 3). The MICs of β-lactams alone against the strains corresponded to a high level of resistance according to Clinical and Laboratory Standards Institute (CLSI) standards. (Clinical and Laboratory Standards Institute, Performance standards for antimicrobial susceptibility testing, 20th Informational Supplement, M100-S20 2010) The compounds had no measurable antibiotic activity when used alone.
(§5) Susceptibility testing was performed and interpreted following the guidelines of CLSI. (Clinical and Laboratory Standards Institute, Performance standards for antimicrobial susceptibility testing, 20th Informational Supplement, M100-S20 2010) The compounds were dissolved in 50% DMSO, and dilutions were performed using Muller-Hinton medium. An adequate final concentration was obtained to determine the minimum inhibitory concentrations (MICs). The concentration of DMSO was maintained below 5%. The inhibitors were tested for synergy with the third-generation β-lactams ceftazidime and cefotaxime against several clinical bacteria. […] Each value reported reflects the average of three independent experiments. […] A Klebsiella pneumoniae isolate produced the inducible plasmid-mediated class C enzyme DHA-1. The Friedman's test and the Wilcoxon signed rank test were used to compare MIC values. Statistical significance was established at p<0.05.

[5] = tested on: E. cloacae overproducing chromosomally-mediated class C β-lactamase; assay: as above; type: cell-based, Enterobacter cloacae; conditions: antibiotic alone
Description: as §4, §5

[6] = tested on: E. coli, AmpC-overproducing; assay: MIC of third-generation cephalosporins alone and with compounds (Table 6); type: cell-based, Escherichia coli; conditions: antibiotic alone
Method: as §1, §2, §3

[7] = tested on: E. coli 142, AmpC-overproducing; assay: as above; type: cell-based, Escherichia coli; conditions: antibiotic alone
Method: as §1, §2, §3

[8] = tested on: E. coli 146, AmpC-overproducing; assay: as above; type: cell-based, Escherichia coli; conditions: antibiotic alone
Method: as §1, §2, §3

[9] = tested on: E. coli R1, AmpC-overproducing; assay: as above; type: cell-based, Escherichia coli; conditions: antibiotic alone
Method: as §1, §2, §3

[10] = tested on: E. coli 144, AmpC-overproducing; assay: as above; type: cell-based, Escherichia coli; conditions: antibiotic alone
Method: as §1, §2, §3

[11] = tested on: CTX-M-14-producing E. coli; assay: as above; type: cell-based, Escherichia coli; conditions: antibiotic alone
Method: as §1, §2, §3

[12] = tested on: E. coli 145, AmpC-overproducing; assay: as above; type: cell-based, Escherichia coli; conditions: antibiotic alone
Method: as §1, §2, §3

[13] = tested on: E. coli overproducing chromosomally-mediated class C β-lactamase; assay: MIC of third-generation cephalosporins alone and with compounds 4 or 9 (Table 3); type: cell-based, Escherichia coli; conditions: antibiotic alone
Description: as §4, §5

[14] = tested on: E. coli producing plasmid-mediated class A β-lactamase CTX-M-14; assay: as above; type: cell-based, Escherichia coli; conditions: antibiotic alone
Description: as §4, §5

[15] = tested on: C. freundii, AmpC-overproducing; assay: MIC of third-generation cephalosporins alone and with compounds (Table 6); type: cell-based, Citrobacter freundii; conditions: antibiotic alone
Method: as §1, §2, §3

[16] = tested on: NDM-1-producing C. freundii; assay: as above; type: cell-based, Citrobacter freundii; conditions: antibiotic alone
Method: as §1, §2, §3

[17] = tested on: C. freundii 101, AmpC-overproducing; assay: as above; type: cell-based, Citrobacter freundii; conditions: antibiotic alone
Method: as §1, §2, §3

[18] = tested on: C. freundii overproducing chromosomally-mediated class C β-lactamase; assay: MIC of third-generation cephalosporins alone and with compounds 4 or 9 (Table 3); type: cell-based, Citrobacter freundii; conditions: antibiotic alone
Description: as §4, §5

[19] = tested on: OXA-48-producing K. pneumoniae; assay: MIC of third-generation cephalosporins alone and with compounds (Table 6); type: cell-based, Klebsiella pneumoniae; conditions: antibiotic alone
Method: as §1, §2, §3

[20] = tested on: K. pneumoniae, AmpC-overproducing; assay: as above; type: cell-based, Klebsiella pneumoniae; conditions: antibiotic alone
Method: as §1, §2, §3

[21] = tested on: K. pneumoniae producing the plasmid-mediated class C β-lactamase DHA-1; assay: MIC of third-generation cephalosporins alone and with compounds 4 or 9 (Table 3); type: cell-based, Klebsiella pneumoniae; conditions: antibiotic alone
Description: as §4, §5

[22] = tested on: AmpC-overproducing Escherichia coli strain 4; assay: Mouse model of bacteremia and sepsis, survival; type: in vivo, OF1 mice; conditions: 120 h post infection; ip at 0.5, 3.5, 6.5 h; imipenem 50 mg/kg, cefotaxime 50 mg/kg, cefotaxime:CR161 50:200 mg/kg
Method: FIG. 17. Percentage of survival of mice infected with AmpC-overproducing Escherichia coli over the course of 5 days (120 h). Mice were inoculated by intraperitoneal injection with AmpC-overproducing Escherichia coli strain 4 (1±0.5 10^9 colony-forming units) and treated at 0.5, 3.5, 6.5 h after infection by intraperitoneal injection of 50 mg/kg imipenem (□, n=20), 50:200 mg/kg cefotaxime:CR161 combination (▪, n=17), 50 mg/kg cefotaxime (●, n=20) or sterile isotonic saline (◯, n=20).
Efficacy in a mouse model of infection. We had not observed such substantial reversal of bacterial resistance to β-lactams, across such a broad spectrum of clinical isolates, for previous series of boronic acid inhibitors of β-lactamase; indeed, this lack of efficacy had motivated this study. These new cell-culture MIC values inspired us to investigate the efficacy of one of these compounds in a mouse model of bacteremia and sepsis. […] Mice were treated with cefotaxime alone, cefotaxime combined with compound CR161, with sterile isotonic saline, and with imipenem as a reference treatment of systemic infections by cephalosporin-resistant enterobacteriaceae (FIG. 17); 20 mice were used in each clade. […]
OF1 mice 4-5 weeks of age and weighing 20-25 g were used in this study. […] The survival of mice in each group was monitored every 6 h for 5 days after infection. […]

Compound: CC(C)(O/N=C(\C(=O)N[C@@H]1C(=O)N2C(C(=O)[O-])=C(C[n+]3ccccc3)CS[C@H]12)c1csc(N)n1)C(=O)O [Ceftazidime]
- MIC, cephalosporin alone [1]: 128 µg/mL
- MIC, cephalosporin alone [2]: 64 µg/mL
- MIC, cephalosporin alone [3]: 32 µg/mL
- MIC, cephalosporin alone [4]: 32 µg/mL
- MIC, cephalosporin alone [5]: 64 µg/mL
- MIC, cephalosporin alone [6]: 128 µg/mL
- MIC, cephalosporin alone [7]: 32 µg/mL
- MIC, cephalosporin alone [8]: 64 µg/mL
- MIC, cephalosporin alone [9]: 8 µg/mL
- MIC, cephalosporin alone [10]: 64 µg/mL
- MIC, cephalosporin alone [11]: 2 µg/mL
- MIC, cephalosporin alone [12]: 128 µg/mL
- MIC, cephalosporin alone [13]: 64 µg/mL
- MIC, cephalosporin alone [14]: 2 µg/mL
- MIC, cephalosporin alone [15]: 64 µg/mL
- MIC, cephalosporin alone [16]: 512 µg/mL
- MIC, cephalosporin alone [17]: 128 µg/mL
- MIC, cephalosporin alone [18]: 64 µg/mL
- MIC, cephalosporin alone [19]: 256 µg/mL
- MIC, cephalosporin alone [20]: 32 µg/mL
- MIC, cephalosporin alone [21]: 32 µg/mL

Compound: C[C@@H](O)[C@H]1C(=O)N2C(C(=O)O)=C(SCCN=CN)C[C@H]12 [Imipenem, imipenem]
- survival [22]: 90%
